Results: patent US20070037205A1, “Methods and apparatus for cell based screening” (priority 2001, published 2007)

Test system: HT-29 cells
Assay: HT-29 cytotoxicity assay (resazurin), with or without IFN-γ pretreatment
Assay type: cell-based, human
Details: IFN-γ treatment alone (data not shown)
Protocol: HT-29 cells (ATCC HTB-38) were cultured in McCoy's 5a Medium with 25 mM HEPES and supplemented with 10% fetal calf serum, 1× nonessential amino acids, 2 mM L-glutamine, 1 mM sodium pyruvate, 100 U/ml penicillin/100 ug/ml streptomycin (complete medium) at 37° C. in a humidified 5% CO2 cabinet. The cellular monolayer was washed with PBS and adherent cells were removed by treatment with 0.25% typsin/0.05% EDTA. The cells were collected by centrifugation and resuspended in complete medium. Cell number and viability was determined by Trypan Blue exclusion staining.
Duplicate plates of HT-29 cells were prepared by seeding cells into clear bottom, black walled 96 well tissue culture treated microplates (Corning 3904) at 5000 cells/well in a volume of 150 μl per well. […] Reduction of resazurin due to metabolic activity causes the dye to change from a non-fluorescent to fluorescent product that can be measured at 530 nm excitation and 590 nm emission wavelengths. Relative Fluorescent Units (RFU) was measured in a Fluoroskan Ascent microplate fluorometer (Thermo/Labsystems) in a bottom-read mode with excitation at 530 nm and emission at 590 nm. […]
Extracts that scored positive in the primary screen were evaluated for tumor cell death in a dose-dependent cytotoxicity assay. […] Inhibition of cellular growth was determined using resazurin indicator dye as described above. […]

Substance: IFN-γ: recombinant human IFN-γ (R & D Systems), sensitizing agent
- growth inhibitory effect on HT-29 cells: no growth inhibitory effect
